The record followed here is patent US20230121952A1 (INFLAZOME LIMITED, priority 2020, published 2023).

Molecules are shown by their SMILES.

Experiment [1] has as its target T1, NLRP3 (Homo sapiens, UniProt Q96P20). The experiment can be described thus: THP-1 cells pyroptosis assay. The experiment is classed as cell-based. Also noted: Seed THP-1 cells (25,000 cells/well) containing 1.0 μg/ml LPS; host or cells: THP-1 cells, LPS-primed, nigericin-stimulated. As to conditions: 1.0 μg/ml LPS, compound 3 hrs, nigericin 5 μM 1 hr, resazurin readout. The procedure:
THP-1 cells (ATCC #TIB-202) were grown in RPMI containing L-glutamine (Gibco #11835) supplemented with 1 mM sodium pyruvate (Sigma #S8636) and penicillin (100 units/ml)/streptomycin (0.1 mg/ml) (Sigma #P4333) in 10% Fetal Bovine Serum (FBS) (Sigma #F0804). The cells were routinely passaged and grown to confluency (˜10^6 cells/ml). On the day of the experiment, THP-1 cells were harvested and resuspended into RPMI medium (without FBS). The cells were then counted and viability (>90%) checked by Trypan blue (Sigma #T8154). Appropriate dilutions were made to give a concentration of 625,000 cells/ml. To this diluted cell solution was added LPS (Sigma #L4524) to give a […] Final Assay Concentration (FAC). 40 μl of the final preparation was aliquoted into each well of a 96-well plate. The plate thus prepared was used for compound screening.
The following method step-by-step assay was followed for compound screening. • 1. Seed THP-1 cells (25,000 cells/well) containing 1.0 μg/ml LPS in 40 μl of RPMI medium (without FBS) in 96-well, black walled, clear bottom cell culture plates coated with poly-D-lysine (VWR #734-0317) • 2. Add 5 μl compound (8 points half-log dilution, with 10 μM top dose) or vehicle (DMSO 0.1% FAC) to the appropriate wells • 3. Incubate for 3 hrs at 37° C., 5% CO2 • 4. Add 5 μl nigericin (Sigma #N7143) (FAC 5 μM) to all wells • 5. Incubate for 1 hr at 37° C., 5% CO2 • 6. At the end of the incubation period, spin plates at 300×g for 3 mins and remove supernatant • 7. Then add 50 μl of resazurin (Sigma #R7017) (FAC 100 μM resazurin in RPMI medium without FBS) and incubate plates for a further 1-2 hrs at 37° C. and 5% CO2 • 8. Plates were read in an Envision reader at Ex 560 nm and Em 590 nm • 9. IC50 data is fitted to a non-linear regression equation (log inhibitor vs response-variable slope 4-parameters) 96-well Plate Map

Experiment [2] has as its target T1, NLRP3. Description: Human whole blood IL-1β release assay. Format: cell-based. As to conditions: 1 μg/ml LPS, compound 3 hrs, nigericin 10 μM 1 hr, IL-1β in supernatant (AlphaLisa), read-out: HWB IC50. Also noted: Human whole blood in Li-heparin tubes was obtained from healthy donors; from tissue; host or cells: human whole blood from healthy volunteer donors, LPS-primed, nigericin-stimulated. The procedure:
For systemic delivery, the ability to inhibit NLRP3 when the compounds are present within the bloodstream is of great importance. For this reason, the NLRP3 inhibitory activity of a number of compounds in human whole blood was investigated in accordance with the following protocol.
Human whole blood in Li-heparin tubes was obtained from healthy donors from a volunteer donor panel. • 1. Plate out 80 μl of whole blood containing 1 μg/ml of LPS in 96-well, clear bottom cell culture plate (Corning #3585) • 2. Add 10 μl compound (8 points half-log dilution with 10 μM top dose) or vehicle (DMSO 0.1% FAC) to the appropriate wells • 3. Incubate for 3 hrs at 37° C., 5% CO2 • 4. Add 10 μl nigericin (Sigma #N7143) (10 μM FAC) to all wells • 5. Incubate for 1 hr at 37° C., 5% CO2 • 6. At the end of the incubation period, spin plates at 300×g for 5 mins to pellet cells and remove 20 μl of supernatant and add to 96-well v-bottom plates for IL-1β analysis (note: these plates containing the supernatants can be stored at −80° C. to be analysed at a later date) • 7. IL-1β was measured according to the manufacturer protocol (Perkin Elmer-AlphaLisa IL-1 Kit AL220F-5000) • 8. IC50 data is fitted to a non-linear regression equation (log inhibitor vs response-variable slope 4-parameters)

T1 sequence (Q96P20 whole entry): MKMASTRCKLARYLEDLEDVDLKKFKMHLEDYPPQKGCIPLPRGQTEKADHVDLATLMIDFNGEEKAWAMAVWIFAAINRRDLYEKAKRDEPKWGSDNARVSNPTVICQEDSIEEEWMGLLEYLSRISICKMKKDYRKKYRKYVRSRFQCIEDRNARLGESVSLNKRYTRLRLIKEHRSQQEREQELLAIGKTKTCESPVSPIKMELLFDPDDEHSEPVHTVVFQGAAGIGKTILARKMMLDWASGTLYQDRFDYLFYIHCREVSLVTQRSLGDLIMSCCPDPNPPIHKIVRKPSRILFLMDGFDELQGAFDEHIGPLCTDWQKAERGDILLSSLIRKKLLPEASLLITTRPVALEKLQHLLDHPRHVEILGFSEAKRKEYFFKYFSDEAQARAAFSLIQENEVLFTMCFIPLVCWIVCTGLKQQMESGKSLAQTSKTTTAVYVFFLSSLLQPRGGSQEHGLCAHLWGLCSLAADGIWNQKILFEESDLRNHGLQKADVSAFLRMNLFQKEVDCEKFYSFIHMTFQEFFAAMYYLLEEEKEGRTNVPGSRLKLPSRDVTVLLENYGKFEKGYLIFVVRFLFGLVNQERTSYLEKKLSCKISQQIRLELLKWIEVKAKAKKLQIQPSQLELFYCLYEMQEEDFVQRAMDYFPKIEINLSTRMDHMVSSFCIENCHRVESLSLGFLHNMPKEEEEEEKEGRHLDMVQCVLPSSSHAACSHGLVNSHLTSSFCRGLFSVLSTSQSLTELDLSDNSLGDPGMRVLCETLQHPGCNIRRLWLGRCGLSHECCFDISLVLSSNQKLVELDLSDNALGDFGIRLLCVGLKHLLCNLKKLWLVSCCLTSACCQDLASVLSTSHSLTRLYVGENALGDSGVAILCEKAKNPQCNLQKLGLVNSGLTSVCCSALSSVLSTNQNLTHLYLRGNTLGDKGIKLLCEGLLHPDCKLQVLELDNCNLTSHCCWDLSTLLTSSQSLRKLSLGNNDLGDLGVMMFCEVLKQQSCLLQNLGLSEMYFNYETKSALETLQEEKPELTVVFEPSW

Consider `Cc1cc2c(c3c1-c1ccnc(c1)OCCCN1CCC4(C1)CN(C4)S(=O)(=O)c1nnc([nH]1)N3)CCC2` [Example 4, 3-methyl-26-oxa-16λ^6-thia-11,13,14,17,22,28,34-heptazaheptacyclo-[25.3.1.1^12,15.1^17,19.1^19,22.0^2,10.0^5,9]tetratriaconta-1(30),2,4,9,12,14,27(31),28-octaene 16,16-dioxide], for which the IC50 against NLRP3 [1] is ≤ 0.1 µM; at NLRP3 [2] it was ≤ 0.5 µM.
Consider `O=S1(=O)c2nnc([nH]2)Nc2c(ccc3c2CCC3)-c2ccnc(c2)OCCN2CCCC23CCN1CC3` [Example 5, 8-oxa-28λ^6-thia-5,10,23,25,26,29,34-heptazaheptacyclo-[27.2.2.1^9,13.1^24,27.0^1,5.0^14,22.0^17,21]pentatriaconta-9(35),10,12,14,16,21,24,26-octaene 28,28-dioxide], for which the IC50 at NLRP3 [1] and on NLRP3 [2] was ≤ 0.5 µM throughout.
`CC1(C)COc2cc(ccn2)-c2ccc3c(c2Nc2nnc([nH]2)S(=O)(=O)c2cccc1c2)CCC3` [Example 8, 22,22-dimethyl-24-oxa-16 λ^6-thia-11,13,14,26,31-pentazahexacyclo-[23.3.1.1^12,15.1^17,21.0^2,10.0^5,9] hentriaconta-1(28),2,4,9,12,14,17,19,21(30),25(29),26-undecaene 16,16-dioxide]: the IC50 is ≤ 5 µM on NLRP3 [1] and ≤ 10 µM on NLRP3 [2].
For `CN1CCOc2cc(ccn2)-c2ccc3c(c2Nc2nnc([nH]2)S(=O)(=O)N2CCC1CC2)CCC3` [Example 9, 25-methyl-22-oxa-2λ^6-thia-1,4,5,7,20,25,32-heptaazahexacyclo-[24.2.2.1^3,6.1^17,21.0^8,16.0^9,13]dotriaconta-3,5,8,13,15,17,19,21(31)-octaene-2,2-dioxide], in that order: ≤ 0.5 µM and ≤ 0.5 µM.
For `CC1(C)COc2cc(ccn2)-c2ccc3c(c2Nc2nnc([nH]2)S(=O)(=O)N2CC4(CCN1C4)C2)CCC3` [Example 10, 23,23-dimethyl-25-oxa-16λ^6-thia-11,13,14,17,22,27,33-heptaazaheptacyclo[24.3.1.1^12,15.1^17,19.1^19,22.0^2,10.0^5,9]tritriaconta-1(29),2,4,9,12,14,26(30),27-octaene-16,16-dioxide], in that order: ≤ 0.1 µM and ≤ 0.5 µM.
For `CN1CCOc2cc(ccn2)-c2ccc3c(c2Nc2nnc([nH]2)S(=O)(=O)N2CC(C1)C2)CCC3` [Example 11, 21-methyl-24-oxa-16λ^6-thia-11,13,14,17,21,26,31-heptaazahexacyclo-[23.3.1.1^12,15.1^17,19.0^2,10.0^5,9]hentriaconta-1(28),2,4,9,12,14,25(29),26-octaene-16,16-dioxide], in that order: ≤ 0.1 µM and ≤ 0.5 µM.
For `CN1CCOc2cc(ccn2)-c2ccc3c(c2Nc2nnc([nH]2)S(=O)(=O)N2CC[C@@H](C1)C2)CCC3` [Example 12, (20S)-22-methyl-25-oxa-16λ^6-thia-11,13,14,17,22,27,32-heptaazahexacyclo[24.3.1.1^12,15.1^17,20.0^2,10.0^5,9]dotriaconta-1(29),2,4,9,12,14,26(30),27-octaene-16,16-dioxide], the IC50 on NLRP3 [1] and at NLRP3 [2] was ≤ 0.5 µM in each case.
